Test results taken from paper PMC10508264, “Exploring the antioxidant, antimicrobial, cytotoxic and biothermodynamic properties of novel morpholine derivative bioactive Mn(II), Co(II) and Ni(II) complexes – combined experimental and theoretical measurements towards DNA/BSA/SARS-CoV-2 3CL^Pro” (RSC Medicinal Chemistry, 2023).

Tested on: CT-DNA
Assay: DNA binding by cyclic voltammetry
Details: for Kb, method I, Oxi: oxidation; for Kb, method I, red: reduction
Protocol: The changes in peak current as well as peak potential were monitored while concentrations of CT-DNA were increased (0–10 μM) in each sample solution.[13,36]
The CV approach is one of the most important methods for evaluating the binding mechanism of a DNA–complex adduct. The CV properties of all test samples in the presence and absence of DNA were executed at a scan rate (v) of 0.1 V s^−1 with a potential range of +2 to −2 in a Tris–HCl (5 mM)/NaCl (50 mM) (pH = 7.2) solution. The M^1+/M^2+ redox couple is caused by complexes that reveal a single anodic and cathodic peak. […] (Fig. S31 ^† and Table 6).
ΔEP is peak-to-peak separation = (EPa − EPc); E° (or E1/2) denotes the formal electrode potential = 1/2(EPa + EPc); [drawing 41] [drawing 42] and [drawing 43] represent the formal electrode potential of the M^1+/M^2+ couple in the bound and free forms, respectively. [drawing 44] = +19 mV (HL), +18 mV (1), +16 mV (2), +16 mV (3). Ipa is anodic peak current, Ipc is cathodic peak current. K^1+ is the binding constant of the reduction process, K^2+ is the binding constant of the oxidation process. S represents the binding site size of base pairs (bp) with a molecule of complex, scan rate is 100 mV s^−1, binding constant (Kb) values observed from the linear plots of log(1/[DNA]) versus log(I/I0 − I) for oxidation and reduction, (I0 − IDNA)/IDNA = Cp/Cfversus [DNA] and I^2p versus(I^2po − I^2p)/[DNA] by methods I, II and III, respectively.
While the substances often bind to DNA through intercalation, the peak potential shifts in a positive direction. When the compounds bind to DNA through minor or major grooves or electrostatic attractions, the peak potential shifts occur in a negative direction. It was observed that the consistent movement of peak potential shifts in the positive direction during increments of DNA with test substances. The binding mode in compound–DNA adducts has been described as primarily intercalation (Fig. S31 ^†), and it is also attributed to the presence of 2,2′-bipyridine and morpholine fused aromatic planar systems in mixed ligand complexes, which can create inclusion through intercalation due to hydrophobic and π–π stacking interactions in the DNA base pairs. It is also supported by the evaluated outcomes from UV-vis spectral, emission titration, viscometric, and biothermodynamic properties. Furthermore, the observed values of Kb, S, and the ratio of binding constants (K^1+/K^2+) for M^1+/M^2+ couple systems further confirmed the binding affinity via intercalation. Also, the subsequent eqn (24)–(35) are applied to determine the above parameters.[88,89]Eqn (24) is acquired from modification of the Stern–Volmer eqn (14) (Table 6). The Kb values for all samples were estimated from the linear regression plot of log(1/[DNA]) versus log(I/I0 − I) by method I (Fig. S32 ^† and Table 6). Eqn (26) was obtained from revision of eqn (25). Also, binding site size (S, bp) and Kb are estimated from eqn (30) from the linear regression plot of (Cp/Cf) versus [DNA] by method-II[90–92] (Fig. S33 ^† and Table 6). In addition, base-pair sites with a molecule of the compound are referred to as “binding site size” (S), and the evaluated S values were found in the range from 0.1718 to 0.4599 bp. […] In the Nernst eqn (31) and (32) for the galvanic cell, [drawing 58] , the formal electrode potentials of the M^1+/M^2+ couple in their bound and free forms are E1/2 or [drawing 59] and [drawing 60] , respectively. As a result of the variable binding state [M^1+/M^2+] and the delayed mass transfer of test compounds that interacted with DNA fragments, the addition of DNA to the compound solution enabled a change in the redox potential to a higher positive direction and a drop in both anodic and cathodic peak currents. In particular, the equilibrium of M^1+/M^2+ is influenced by electrostatic or hydrophobic interactions.

Structure (SMILES)	Kb, method II [M⁻¹]	Kb, method III [M⁻¹]	Kb, method I, Oxi [M⁻¹]	Kb, method I, red [M⁻¹]
[Mn+2].[O-]c1ccccc1N=Cc1ccc(N2CCOCC2)cc1.[O-]c1ccccc1N=Cc1ccc(N2CCOCC2)cc1.c1ccc(-c2ccccn2)nc1 [(1)]	14873	10713	10020	7890
[Co+2].[O-]c1ccccc1N=Cc1ccc(N2CCOCC2)cc1.[O-]c1ccccc1N=Cc1ccc(N2CCOCC2)cc1.c1ccc(-c2ccccn2)nc1 [(2)]	41119	15999	14210	11330
[Ni+2].[O-]c1ccccc1N=Cc1ccc(N2CCOCC2)cc1.[O-]c1ccccc1N=Cc1ccc(N2CCOCC2)cc1.c1ccc(-c2ccccn2)nc1 [(3)]	6072	16031	11440	9156
Oc1ccccc1N=Cc1ccc(N2CCOCC2)cc1 [(HL), 2-(4-morpholinobenzylideneamino)phenol]	2443	4837	5280	3809
